Earlier results, collected in patent US6548087B1, “Nutritional supplement” (priority 1999, dated 2003).

System: libido and performance
Settings: daily use

**Q.** With C[C@]12CC[C@H](O)CC1=CC[C@@H]1[C@@H]2CC[C@]2(C)C(=O)CC[C@@H]12 [DHEA, dehydroepiandrosterone] as the compound, how does the “effect on libido and performance” value read?
**A.** increase libido and performance
